According to patent publication US9939427B2, “Method for evaluating the scent performance of perfumes or perfume mixtures” (Symrise AG, priority 2013, dated 2018):

Target: T1, OR4K2 (Homo sapiens, UniProt Q8NGD2)
T1 construct: specific primers, which amplify the complete open reading frame; expressed in transfected cells; host or cells: HEK293
T1 sequence (Q8NGD2 1-314): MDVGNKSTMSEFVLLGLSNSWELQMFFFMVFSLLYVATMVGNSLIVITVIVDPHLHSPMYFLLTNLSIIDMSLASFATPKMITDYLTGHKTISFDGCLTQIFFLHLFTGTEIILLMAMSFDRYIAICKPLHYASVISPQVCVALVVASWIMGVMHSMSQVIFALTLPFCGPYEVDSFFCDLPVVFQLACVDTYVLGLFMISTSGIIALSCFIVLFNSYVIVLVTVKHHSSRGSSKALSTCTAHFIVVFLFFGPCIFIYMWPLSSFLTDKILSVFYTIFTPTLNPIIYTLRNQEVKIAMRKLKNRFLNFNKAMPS
Assay: Ca-imaging of OR4K2-transfected HEK293 cells
Type: cell-based
Parameters: key to OR4K2 responded to odorant: ▪: 18 olfactory receptors responded to 32 odorants in related with specific anosmia
Protocol: HEK293 cells were cultivated in Petri dishes (Ø35 mm) as previously described (Benbernou et al. 2007). We grow up HEK293 cells in culture medium containing standard DMEM with 10% heat-inactivated fetal bovine serum, 2 mM L-glutamine, 100 units/ml penicillin, and 100 units/ml streptomycin in a humidified atmosphere (37° C., 5% CO2). After 2-3 days, the transfection process was carried out, whereby the cell culture was 70-80% confluent. The calciumphosphate method was applied to transfect DNA plasmid transiently in HEK293 cells in case of Ca-imaging method.
Calcium cations and phosphate anions created crystal precipitations coupled with DNA which could invade into the cells through endocytosis. Cells were transiently transfected with plasmid DNA which consists of pCI expression vector and PCR-amplified full-length cDNA of olfactory receptors candidates, and also Gα15, RTP1, Myr-Ric8A, HSC70, and m-Cherry as cofactors. The precipitation could be created after 15-20 min, with dropping the transfection solution on HEK293 cells. Before measuring by Ca-imaging cells were incubated 48-60 hours at 370 C, 5% CO2. Cationic liposome-mediated transfection method was applied to transfect DNA plasmid transiently in HANA3A cells in case of CRE-Luciferase and CRE-SEAP assays.
Calcium imaging of the transfected HEK293 cells was done by using chambers determinate an inverted microscope (Olympus; IX70) using a 10× objective (CPIanFL N Olympus). Fluorescence emission was determined every 4 s by using a CCD camera (Charge Coupled Device, C9100 Hamamatsu). The capillary tube which was responsible to supply odorants was generated closely above the cells. The columns filled with odorants, DMSO and ATP. Odorants were manually monitored to drop each 4-5 s to transfected cells. Solutions with drop wise form spread on HEK293 cells in 35 mm dishes.
In experiments, Fura-2 Acetoxymethylester (Fura-2/AM) was applied. The non-polar Fura2/AM is fluorescent but not yet calcium-sensitive. Once diffuses into cell plasma, Fura-2/AM is hydrolyzed to Fura-2 which is calcium-sensitive and functions as Ca2+ chelator. Regardless of the presence of calcium, Fura-2 emits at the wavelength of 510 nm. Once Fura-2 binds to free intracellular Ca2+ in cell plasma, its ratio of excitation at wavelengths of 340 nm and 380 nm is changed and correlated to the amount of intracellular Ca2+. According to this feature, the analysis of 340/380 nm excitation ratio for Fura-2 allows to quantify intracellular calcium levels.
In preparation for Ca-imaging measurements, transfected HEK293 cells were added 3 it Fura2/AM (3 μM) and incubated 30-45 min at 370 C, 5% CO2. After this step, experiments were carried out in a dark condition (Fura-2 is light-sensitive). After the incubation, medium of cell culture was replaced with 2 ml Ringer's solution.
Odorants were freshly prepared with DMSO as 1 M stocks solutions. Six mixtures (200 μM each chemical) were applied to cells sequentially (20 s each mixture/30 s Ringer). Those ORs tested with single odorants that had generated a response to odorant mixture group previously. Odorants were prepared in 100-200 μM concentration.
Ringer's solution was used for washing cells between measuring by two different odorants. Positive response was determined by the timing of the response, the strength of the response (more than twofold higher than the noise amplitude of the baseline), and the shape of the response curve (sharp rise in curve with gradual recovery). […]

OR4K2 responded to odorant (HEK293 cells, individual odorant 200 μM, significant response p<0.05): ▪
Response of OR4K2 to odorant, in words (single odorants 200 μM): responded
Structure (SMILES): O=C1CCCCCCCCCCCCCCO1 [Pentadecanolide, ω-cyclopentadecanolide]
